Assay results taken from publication PMC7072302 (Biomolecules, 2020).

Target: T1, tyrosinase (Agaricus bisporus, UniProt C7FF04)
T1 construct: purchased Sigma-Aldrich T3824
Test: Tyrosinase enzymatic assay (L-tyrosine substrate, absorbance at 475 nm)
Type: biochemical
Conditions: for Ki: Dixon plot, read-out: Ki (inhibition constant); for inhibition at 100 µM: compound concentration 100 μM, L-tyrosine substrate, triplicate, mean ± SD, read-out: Inhibition Rate (%) at 100 μM; for IC50: concentrations 3.1 to 100 μM, mean ± SD (n = 3)

T1 sequence (C7FF04 1-392 limits assumed): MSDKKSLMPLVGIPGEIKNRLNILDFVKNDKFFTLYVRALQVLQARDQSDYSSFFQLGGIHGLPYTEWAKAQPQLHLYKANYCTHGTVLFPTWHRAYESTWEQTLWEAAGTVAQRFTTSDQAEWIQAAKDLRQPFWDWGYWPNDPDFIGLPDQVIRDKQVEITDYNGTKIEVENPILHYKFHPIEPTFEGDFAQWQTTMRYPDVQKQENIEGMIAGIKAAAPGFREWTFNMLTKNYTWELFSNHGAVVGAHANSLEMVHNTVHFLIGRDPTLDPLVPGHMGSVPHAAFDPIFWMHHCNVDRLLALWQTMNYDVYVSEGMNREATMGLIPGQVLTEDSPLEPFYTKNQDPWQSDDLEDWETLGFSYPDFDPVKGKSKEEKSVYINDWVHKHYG

Ki | inhibition at 100 µM | IC50 | SMILES
1.6 µM | > 80% | 7.4 ± 0.4 µM | COc1cc(C(=O)OCCCCN=C(N)N)cc(OC)c1OC [Compound 1, 10-methoxy-leonurine]
11.4 µM | > 80% | 12.4 ± 0.8 µM | COc1cc(C(=O)OCCCCNC(=N)N)cc(OC)c1O [Compound 2, leonurine]
– | 11.6 ± 0.1% | – | COc1cc(C(=O)O)cc(OC)c1O [Compound 3, syringic acid]
– | 1.8 ± 5.9% | – | O=c1c(O[C@@H]2O[C@H](CO)[C@@H](O)[C@H](O)[C@H]2O)c(-c2ccc(O)c(O)c2)oc2cc(O)cc(O)c12 [Compound 4, isoquercitrin]
